What all share (format): physicochemical
Data set [1] can be described thus: Relaxivities summarised over the field strengths investigated or without stated field. Particulars: three field strengths investigated. How it is done:
T1 and T2 relaxation time measurements were performed on Bruker Minispecs operating at 1H resonance frequencies of 20 and 60 MHz. An inversion recovery pulse sequence was employed for T1 relaxation time measurements using a monoexponential fit to the recovery curve. For each experiment, 4 scans were collected with a recycle delay of 15 s. To obtain the recovery curve, 50 evenly spaced points were collected with the first point acquired at 5 ms. The last time point was collected at 4000 ms for short T1 samples and 10,000 ms for samples with long T1 so that each sample was allowed to fully recover. The receiver gain for each sample was set so that the signal amplitude was approximately 60%.
(§1) The T2 times were calculated from a monoexponential fit to a spin echo decay curve using a Carr-Purcell-Meiboom-Gill (CPMG) pulse sequence. […]
(§2) All MRI experiments were performed on a Bruker Avance 400 MHz (9.4 T) spectrometer equipped with a high-resolution Micro5 microimaging system with a 25 mm RF coil. […] We also obtained quantitative evaluation of the longitudinal relaxation times, T1, by plotting M/Mo versus log(τ), that is, the residual magnetization as a function of the recovery time. T1 values were measured by fitting M(τ)/Mo to an single-exponential growth curve: (M(τ)/Mo)=(1−[…]). Transverse relaxation times were determined by a plot of log-(M/Mo) versus τ. […]

Data set [2] can be described thus: T1/T2 relaxation MRI on Bruker Avance 400 MHz (9.4 T) microimaging system. Conditions: measured simultaneously with the nanoparticles at 400 MHz; repeated. How it is done:
The concentrations of our solutions are given in terms of silanized nanoparticle concentration and not in terms of Gd^3+ present in solution because the latter is attached to the nanoparticles. At 1 μM concentration, the average distance between nanoparticles is over 100 nm. We determined the concentration of the nanoparticle solution by measuring the UV-vis spectrum. […] We used the following numbers: QD exciton peak at approximately 610 nm, fluorescence emission at approximately 630 nm, full width at half-maximum (fwhm) of 38 nm, extinction coefficient used 620 000 M^−1cm^−1 following published reports (Yu, et al. (2003) Chem. Mater. 15: 2854-2860). […] These latter numbers were computed from the concentrations given by the manufacturer and the OD of citrate-stabilized Au colloids measured directly out of the bottle.
as §2

The nature of data set [3]: Gd3+ release from DOTA, colorimetric Arsenazo test. Particulars: several weeks. How it is done: The synthesis of Gd-DOTA (i.e., one Gd3+ ion chelated by DOTA) was performed according to a procedure adapted from previous reports (Wang et al. (1992) Inorg. Chem. 31: 1095-1099; Prantner et al. (2003) Mol. Imaging 2: […]). We dissolved p-NH2-Bn-DOTA (2-(4-aminobenzyl)-1,4,7,10-tet-raazacyclododecane-1,4,7,10-tetraacetic acid) in water and add an aqueous solution of GdCl3 (Sigma-Alrich), so as to have a 1:0.98 molar mixture of DOTA/Gd3+ and approximately 0.2 M concentration in DOTA. The solution was heated a few minutes to 80° C. to favor coordination of Gd3+ with the tetraazacy-clododecane ring. The pH of the solution droped below 1. We brought the pH to 3.5-4 by adding aliquots of 7 M NaOH and heat the solution back to 80° C. for a few minutes. At this early stage, heating produces acidification of the solution. […] At that stage, the solution was kept at 80° C. for 3 h. Completion of the Gd^3+ chelation was confirmed by a colorimetric assay using Arsenazo dye (Sigma-Alrich). This colorimetric dye reacts to the presence of unbound or free Gd^3+. The dye natural color is purple, but if it binds to Gd^3+ its color turns to blue. […] The stability of the Gd-DOTA has been studied using the colorimetric Arsenazo test.

Data set [4] is described as follows: T1 and T2 relaxation time measurements on Bruker Minispecs at 20 and 60 MHz. Conditions: 20-100 MHz; comparison line.
Excerpt: After extensive purification from unbound Gd-DOTA, these samples were chemically analyzed by inductively coupled plasma mass spectrometry (ICP-MS) by measuring the total amount of Gd and Cd or Au ions. By assuming bulk parameters of the CdSe or Au lattice and the size of the nanoparticles (using tabulated values linking the size of the QDs to its optical properties, or the claimed size for Au nanocrystals), we deduced the number of Gd per silanized nanoparticle. The number of Gd^3+ […] SiO2-coated nanoparticle varied from 3 to greater than 300 and depends on the size of the initial nanoparticles and the conditions used during the conjugation of Gd-DOTA to the silanized nanoparticles. Notice that the same samples were used for MRI study and ICP-MS analysis.
T1 and T2 relaxation time measurements were performed on Bruker Minispecs operating at 1H resonance frequencies of 20 and 60 MHz. An inversion recovery pulse sequence was employed for T1 relaxation time measurements using a monoexponential fit to the recovery curve. For each experiment, 4 scans were collected with a recycle delay of 15 s. To obtain the recovery curve, 50 evenly spaced points were collected with the first point acquired at 5 ms. […]
as §1

Take Gd-DOTA: the “relaxivities of unbound Gd-DOTA” value in data set [1] lay in the range of 3 to 12 mM⁻¹ s⁻¹. Besides, the “r1 Gd^3+ ion relaxivity of unbound Gd-DOTA” value in data set [2] was 3.7 ± 0.04 mM⁻¹ s⁻¹; in data set [4], 3 to 5 mM⁻¹ s⁻¹. The “r2 Gd^3+ ion relaxivity of unbound Gd-DOTA” value in data set [2] was determined as 3.8 ± 0.2 mM⁻¹ s⁻¹. In data set [3], the “Gd^3+ release from the DOTA ring” value is “No Gd^3+ release”.

(Values after patent US20100183504A1, “MULTIMODAL IMAGING PROBES FOR IN VIVO TARGETED AND NON-TARGETED IMAGING AND THERAPEUTICS” (priority 2007, published 2010).)
